The values below come from article PMC11360180, “Enhancement of Antimicrobial Function by L/D-Lysine Substitution on a Novel Broad-Spectrum Antimicrobial Peptide, Phylloseptin-TO2: A Structure-Related Activity Research Study” (Pharmaceutics, 2024).

Several values for one entry are separate records, joined by “and”; a condition that tells them apart may be missing. Equal values may be shown once. Read-outs that look alike come from different tables or passages of the source. Where a SMILES comes first, the peptide text is derived from it. Where no end group is shown, it is not given here. [ ]: non-standard residue; d: D form.

Series [1] relates to S. aureus (ATCC 6538). The format is cell-based, Staphylococcus aureus. The text has this:
(§1) Seven microorganism strains were used to preliminarily evaluate the antimicrobial activity of PSTO2 and its analogues, including Staphylococcus aureus (S. aureus) (ATCC® 6538), methicillin-resistant Staphylococcus aureus (MRSA) (NCTC® 12493), Enterococcus faecalis (E. faecalis) (NCTC® 12697), E. coli (ATCC® 8739), Klebsiella pneumonia (K. pneumonia) (ATCC® 43816), Pseudomonas aeruginosa (P. aeruginosa) (ATCC® CRM 9027), Acinetobacter baumanni (A. baumanni) (BAA® 747), and Candida albicans (C. albicans) (ATCC® 10231). In this study, the strains were cultured in Mueller–Hinton broth (MHB), nutrient broth (NB), and yeast–peptone–dextrose broth (YPD-B) correspondingly at 37 °C, with shaking at 120 rpm. Each peptide was dissolved from 128 μM to 1 μM and mixed with the bacterium at 5 × 10^5 CFU/mL. In this process, bacteria with culture medium were used as the growth control group; PBS was set up as the vehicle control group; sterile culture medium was used as the blank control group; and Norfloxacin at a concentration of 2 mg/mL and amphotericin B at a concentration of 1 mg/mL were set up as the positive control group for bacteria and fungi, respectively.
(§2) After being incubated for 24 h, a Synergy HT plate reader (Bio-Tek, Shoreline, WA, USA) was used to detect the absorbance of each well in the 96-well plate at λ = 550 nm. The concentration at which no visible turbidity could be recorded was the MIC value. Beginning from the MIC value, 10 µL of solution in each clear well was dropped on the sterile agar plates. The plate was checked the next day for colony formation, and the lowest concentration at which no colony growing was recorded as an MBC value.

In series [2] the test system is MRSA (NCTC 12493). The format is cell-based, methicillin-resistant Staphylococcus aureus.
Source text: as §1, §2

For series [3], the system named is E. coli (ATCC 8739). The format is cell-based, Escherichia coli.
Source text: as §1, §2

Series [4] relates to K. pneumonia (ATCC 43816). The series is classed as cell-based, Klebsiella pneumonia.
Source text: as §1, §2

Series [5] relates to P. aeruginosa (ATCC 9027). The series is classed as cell-based, Pseudomonas aeruginosa.
Source text: as §1, §2

The test system of series [6] is A. baumannii (BAA 747). The format is cell-based, Acinetobacter baumanni. To be noted: BAA 747, 24 h.
Source text: as §1, §2

For series [7], the system named is C. albicans. The series is classed as cell-based, Candida albicans. The conditions noted are these: 24 h.
Source text: as §1, §2

Series [8] concerns horse red blood cells. The format is cell-based. Here is the method: To assess the haemolytic activity of PSTO2 and its analogues, 2% fresh defibrinated horse red blood cells (TCS Biosciences Ltd., Buckingham, UK) were acquired after being washed and resuspended in sterile PBS. Each peptide was dissolved in PBS to prepare solutions with concentrations ranging from 2 µM to 1024 µM. Subsequently, 100 µL of each peptide solution was mixed with 100 µL of the red blood cell suspension. The red blood cells treated with 1% triton X-100 and sterile PBS in equivalent volumes were set up as the positive and negative control groups, respectively. Then, all the samples were incubated at 37 °C for 2 h. Thereafter, the samples were centrifuged at 900× g for 10 min. Finally, 100 µL of supernatant of each sample was transferred into a 96-well plate, and the absorbance was recorded by a Synergy HT plate reader (Bio-Tek, Shoreline, WA, USA) at a wavelength of 570. The following equation was used to calculate haemolysis activity:Haemolysis activity = (Sample absorbance − Ab)/(Ap − Ab) × 100% where Ab refers to the mean value of absorbance of the negative control (incubated with PBS only), and Ap refers to the mean absorbance value of the positive control (incubated with triton X-100).

For series [9], the system named is S. aureus (ATCC 6538) biofilm. The series is classed as cell-based, Staphylococcus aureus. The conditions noted are these: ATCC 6538, 24 h. The procedure: (§3) To test the anti-biofilm ability of PSTO2 and its analogues, three types of microorganisms (S. aureus ATCC® 6538, E. coli ATCC® 8739, and MRSA NCTC® 12493) were chosen. Tryptic soy broth (TSB) and Lysogeny broth (LB) were used to culture microorganisms. The peptide was dissolved in an autoclaved PBS solution and diluted into concentrations ranging from 51,200 µM to 100 µM. One µL of peptide solution of each concentration was added into a 96-well plate with 100 µL bacterium at 5 × 10^5 CFU/mL. The plate was incubated at 37 °C for 24 h, with shaking at 200 rpm. After overnight incubation, the planktonic bacteria were washed up. Then, 100 µL of methanol was used to fix the biofilms onto the bottom, and 100 µL of 0.1% crystal violet solution (Sigma-Aldrich, Gillingham, UK) was added to each well to stain the biofilms. After drying, 160 µL of acetic acid (30% in deionised water, Sigma-Aldrich, UK) was added to each well to dissolve the shaded parts. The absorbance was detected with the Synergy HT plate reader at λ = 595 nm.
(§4) For the MBEC assay, 100 µL of the bacterium of 5 × 10^5 CFU/mL was transferred into an empty 96-well plate, and the plate was incubated at 37 °C for 24 h to obtain the biofilms primarily. Then, the peptide solution from 512 µM to 1 µM was transferred into a corresponding well, followed by 24 h incubation at 37 °C, with shaking at 200 rpm. After this, the plate was handled using the identical method to the plate in the MBIC assay, and the absorbance of each well was detected with the Synergy HT plate reader at λ = 595 nm. The minimum concentration at which the peptide can eradicate the existing biofilm was recorded as the MBEC value.

Series [10] concerns MRSA (ATCC 12493) biofilm. The format is cell-based, methicillin-resistant Staphylococcus aureus. The conditions noted are these: ATCC 12493, 24 h. The procedure:
as §3, §4

The test system of series [11] is E. coli (ATCC 8739) biofilm. The series is classed as cell-based, Escherichia coli. The conditions noted are these: ATCC 8739, 24 h. The procedure: as §3, §4
Setting [12] is: clear wells plated on agar, no colony.

Usually MIC stands for the least concentration at which growth counts as inhibited. Regarding `CC[C@H](C)[C@H](NC(=O)CN)C(=O)NCC(=O)N[C@@H](C)C(=O)N[C@H](C(=O)N[C@@H](CC(C)C)C(=O)N[C@@H](CCCCN)C(=O)N[C@H](C(=O)N[C@@H](CC(C)C)C(=O)N[C@H](C(=O)N[C@H](C(=O)NCC(=O)N[C@@H](CC(C)C)C(=O)N1CCC[C@H]1C(=O)N[C@@H](C)C(=O)N[C@@H](CC(C)C)C(=O)N[C@H](C(=O)N[C@@H](CO)C(=O)N[C@@H](Cc1c[nH]c2ccccc12)C(=O)N[C@H](C(=O)N[C@@H](CCCCN)C(=O)N[C@@H](CCCNC(=N)N)C(=O)N[C@@H](CCCCN)C(=O)N[C@@H](CCCNC(=N)N)C(=O)N[C@@H](CCC(N)=O)C(=O)N[C@@H](CCC(N)=O)C(N)=O)[C@@H](C)CC)[C@@H](C)CC)[C@@H](C)O)[C@@H](C)O)C(C)C)C(C)C` [Mellitin, melittin, reference compound], the MBC in [1] (setting [12]) is 5.7 µg/mL and 2 µM; in [2] (setting [12]), 2 µM; in series [3] (setting [12]), 4 µM; in [4] (setting [12]), 32 µM; in series [5] (setting [12]) it was 32 µM. In addition, the MIC in series [4] (5 × 10^5 CFU/mL, 24 h, absorbance 550 nm) turned out to be 32 µM.

With `CC[C@H](C)[C@H](NC(=O)[C@H](C)NC(=O)[C@@H](CCCCN)NC(=O)[C@@H]1CCCN1C(=O)[C@@H](NC(=O)[C@H](CC(C)C)NC(=O)[C@H](CO)NC(=O)[C@H](CC(C)C)NC(=O)[C@@H](N)Cc1ccccc1)[C@@H](C)CC)C(=O)N[C@H](CCCCN)C(=O)N[C@@H](C)C(=O)N[C@H](C(=O)N[C@@H](CO)C(=O)N[C@@H](C)C(=O)N[C@@H](CC(C)C)C(=O)N[C@@H](C)C(=O)N[C@@H](CCCCN)C(=O)N[C@H](CCCCN)C(=O)N[C@@H](CC(C)C)C(N)=O)C(C)C` [Peptide D1] (H-FLSLIP[dK]AI[dK]AVSALAK[dK]L-NH2), the MBC in [1] (ATCC 6538, 24 h) is more than 128 µM; in [2] (NCTC 12493, 24 h), more than 128 µM; in [3] (ATCC 8739, 24 h), 32 µM; in [6], 32 µM; in series [4] (ATCC 43816, 24 h), 128 µM; in [5] (ATCC 9027, 24 h), 32 µM. In [7], the MBC was more than 128 µM. In addition, the MIC in [1] (ATCC 6538, 24 h) was more than 128 µM; in series [2] (NCTC 12493, 24 h), more than 128 µM; in series [3] (ATCC 8739, 24 h), 32 µM; in [6] it was 32 µM; in series [4] (ATCC 43816, 24 h) it was 128 µM; in [5] (ATCC 9027, 24 h), 32 µM. The MIC in series [7] is more than 128 µM. Moreover, the HC10 entry in [8] is listed as “Not significant”.

Take `CC[C@H](C)[C@H](NC(=O)[C@H](C)NC(=O)[C@@H](CCCCN)NC(=O)[C@@H]1CCCN1C(=O)[C@@H](NC(=O)[C@H](CC(C)C)NC(=O)[C@H](CO)NC(=O)[C@H](CC(C)C)NC(=O)[C@@H](N)Cc1ccccc1)[C@@H](C)CC)C(=O)N[C@H](CCCCN)C(=O)N[C@@H](C)C(=O)N[C@H](C(=O)N[C@H](CCCCN)C(=O)N[C@@H](C)C(=O)N[C@@H](CC(C)C)C(=O)N[C@@H](C)C(=O)N[C@H](CCCCN)C(=O)N[C@H](CCCCN)C(=O)N[C@@H](CC(C)C)C(N)=O)C(C)C` [Peptide D2] (H-FLSLIP[dK]AI[dK]AV[dK]ALA[dK][dK]L-NH2): the MBC in series [1] (ATCC 6538, 24 h) is more than 128 µM; in [2] (NCTC 12493, 24 h), more than 128 µM; in series [3] (ATCC 8739, 24 h) it was 32 µM; in [6] it was 16 µM; in [4] (ATCC 43816, 24 h), 128 µM; in series [5] (ATCC 9027, 24 h), 16 µM. Further, the MBC in series [7] was more than 128 µM. For the same compound, the MIC in series [1] (ATCC 6538, 24 h) was more than 128 µM; in [2] (NCTC 12493, 24 h), more than 128 µM; in series [3] (ATCC 8739, 24 h) it was 16 µM; in series [6] it was 16 µM; in series [4] (ATCC 43816, 24 h), 128 µM; in [5] (ATCC 9027, 24 h), 16 µM. The MIC in series [7] was more than 128 µM. The HC10 result in series [8] is on record as “Not significant”.

With FLSLIPKAISAVSALAKHL-NH2 [Peptide 7K], the MBC in series [1] (ATCC 6538, 24 h) is 4 µM; in [2] (NCTC 12493, 24 h) it was 8 µM; in series [3] (ATCC 8739, 24 h), 8 µM; in series [6], more than 128 µM; in [4] (ATCC 43816, 24 h), 8/8 μM; in series [5] (ATCC 9027, 24 h), 32 µM. Moreover, in [7], the MBC is 64 µM. In addition, the MIC in series [1] (ATCC 6538, 24 h) was 4 µM; in series [2] (NCTC 12493, 24 h), 4 µM; in series [3] (ATCC 8739, 24 h), 8 µM; in series [6] it was more than 128 µM; in series [5] (ATCC 9027, 24 h), 32 µM; in series [7], 32 µM. The figures for the MBEC in series [9], in series [10] and in [11] were 32 µM, 32 µM and 64 µM, respectively. Moreover, the results for the MBIC in series [9], in series [10] and in [11] were 16 µM, 4 µM and 16 µM, respectively. Besides, the HC10 in series [8] was found to be 21.97.

Turning to FLSLIPKAISAVSALAKKL-NH2 [Peptide 18K], the MBC is 4 µM in [1] (ATCC 6538, 24 h); 4 µM in [2] (NCTC 12493, 24 h); 4/4 μM in series [3] (ATCC 8739, 24 h); 32/32 μM in [6]; 16/16 μM in series [4] (ATCC 43816, 24 h); 64 µM in [5] (ATCC 9027, 24 h). The MBC in series [7] stood at 128 µM. Also, the MIC in series [1] (ATCC 6538, 24 h) was determined as 2 µM; in [2] (NCTC 12493, 24 h) it was 4 µM; in series [5] (ATCC 9027, 24 h), 32 µM; in series [7], 32 µM. For the same compound, the MBEC in [9] worked out at 32 µM; in [10] it was 32 µM; in [11], 64 µM. Moreover, the MBIC in series [9] came out at 8 µM; in [10], 4 µM; in series [11], 32 µM. Also, in series [8], the HC10 is reported as 20.59.
